Earlier results as cited in patent US20030119882A1, “Solid pharmaceutical composition containing torasemide” (priority 2001, published 2003).

Conditions: present in very fine dispersion in a pharmaceutical tablet; prior art, cf. EP 212 537 A

Question: For `Cc1cccc(Nc2ccncc2S(=O)(=O)NC(=O)NC(C)C)c1` [torasemide of the modification II, 1-isopropyl-3-[(4-m-toluidino-3-pyridyl)sulphonyl]urea], which “Rearrangement of modification II to modification I” value is on record?
Answer: The value was “rearranges more or less rapidly to the modification I”.
